Where a SMILES comes first, the peptide text is derived from it. Bridges are numbered along the chain shown (N, C = ends). The star is where a group is joined. DOTA = O=C(O)CN1CCN(CC(=O)O)CCN(CC(=O)*)CCN(CC(=O)O)CC1
Assays:
HNO97 cells [1] = type: binding, human; details: 48 h
Description: (§1) For binding studies, 2.5×10^5 to 4×10^5 cells were seeded in 6-well plates and cultivated for 48 hours. Cells were incubated for 60 min with 1 mL serum-free medium containing the ^125I-labeled peptide (see above). For competition experiments, cells were simultaneously exposed to unlabeled (10^-4 M to 10^-10 M) and ^125I-labeled peptides. After three washing steps with PBS (pH 7.4) the cells were lysed with 0.5 mL of 0.3 M NaOH. Experiments concerning the internalization, kinetics and efflux were additionally performed with ^177Lu-DOTA-SFITGv6. To evaluate kinetics and efflux HNO97 cells were incubated for different time intervals (10 min to 480 min) and 60 min, respectively, with ^177Lu-DOTA-SFITGv6 and lysed as described. To continue with the efflux experiment radioactive medium was replaced by non-radioactive medium and cells were incubated again for 60 to 240 min before measuring radioactivity of the cell lysates and the medium. For internalization experiments the cells were exposed to ^177Lu-DOTA-SFITGv6 for different time intervals (10 to 240 min) at 37° C. and 4° C. After three washing steps with PBS the cells were incubated with 1 mL of glycine-HCl 50 mmol/L in PBS (pH 2.8) for 10 min at RT to remove the surface bound activity. Then, cells were washed with 3 mL of ice-cold PBS and lysed as described. Radioactivity was determined in a gamma counter and calculated as percentage of the applied dose per 1×10^6 cells. Experiments were performed three times, and three repetitions per independent experiment were acquired.

[2] = test system: HNSCC cell lines HNO97, HNO399, and HNO223; type: binding, human
Description: For the assessment of the peptide binding capacity in vitro, 2.5-4×10^5 cells were seeded into 6-well plates and cultivated for 48 h. ^125I-labeled peptide resuspended in 1 mL serum-free medium was added and incubated for either 10 min or 60 min with or without different concentrations of unlabeled peptide (10^−4-10^−11 M). Afterwards, cell monolayers were washed three times with 1 mL phosphate-buffered saline (pH 7.4) to remove unbound peptide and the cells were harvested with 1.4 mL lysis buffer (0.3 M NaOH). To evaluate kinetic properties the cells were exposed to ^177Lu-DOTA-labeled peptides for 10, 30, 60, 120, and 240 min, respectively, and lysed as described. For the efflux experiments the cells were incubated with ^177Lu-DOTA-labeled peptides for 60 min. Thereafter, radioactive medium was replaced by non-radioactive medium and cell monolayers were incubated for additional 60, 120, and 240 min and afterwards lysed as described earlier. The internalization was assessed after exposure of the cells to ^177Lu-DOTA-labeled peptides for 10, 30, 60, 120, and 240 min at 37° C. Unspecifically bound peptide was removed from the surface by incubation with 1 M glycine-HCl solution (pH 2.2) for 10 min. The monolayer cell was rinsed with PBS and cells were lysed as described before. Radioactivity was determined in a y-counter and calculated as percentage of the applied dose per 1×10^6 cells. […]

[3] = Serum stability assay (radio-HPLC); type: in vitro ADME, human
Description: Five MBq of the purified ^131I-radiolabeled peptide was incubated in 300 μL human serum at 37° C. After different time intervals (15 min to 24 hours) 20 μL serum was precipitated with 40 μL acetonitrile. The stability of the labeled peptide in the supernatant was monitored by radio-HPLC at selected time points using a chromolith performance RP18ec column (3 mm×100 mm) equipped with a gamma detector (Packard COBRA™ Auto-Gamma, GMI). Separation condition was a gradient of 0% to 60% aqueous acetonitrile supplemented with 0.1% TFA over 10 min with a flow rate of 2 mL/min.

[4] = test system: brain metastases derived from breast cancer and NSCLC; test: Histochemical peptide staining of brain metastases; design: species or system human
Description: Staining with the biotinylated PEG(12)-SFITGv6 peptide was performed on acetone-fixed cryosections (5 μm) of tumor tissues after blocking of unspecific binding using the Avidin/Biotin Blocking Kit (SP-2001, Vector Laboratories). A stock solution of the lyophilized peptide was prepared by dilution in 5% aqueous DMSO. Slices were incubated overnight at 4° C. with 10^-5 M peptide concentration in antibody diluent (DAKO). Detection of bound peptide was carried out with the Vectastain Elite ABC Kit (PK-6100, Vector Laboratories) according to manufacturer's protocol. Peptide specificity was ensured by a scrambled (GRD) PEG(12)-SFITGv6 derivate, the somatostatin receptor ligand DOTATOC and negative controls (without peptide or primary antibody) Staining results were assessed by bright field microscopy (BX50) with the SC30 camera and the cell Sense software (all Olympus).

HNO97 cells [5] = test: In vitro binding, kinetics, internalization and efflux on HNO97 cells; type: cell-based, human
Description: as §1
For the assessment of the peptide binding capacity in vitro, 2.5-4×10^5 cells were seeded into 6-well plates and cultivated for 48 h. ^125I-labeled peptide resuspended in 1 mL serum-free medium was added and incubated for either 10 min or 60 min with or without different concentrations of unlabeled peptide (10^−4-10^−11 M). Afterwards, cell monolayers were washed three times with 1 mL phosphate-buffered saline (pH 7.4) to remove unbound peptide and the cells were harvested with 1.4 mL lysis buffer (0.3 M NaOH). To evaluate kinetic properties the cells were exposed to ^177Lu-DOTA-labeled peptides for 10, 30, 60, 120, and 240 min, respectively, and lysed as described. For the efflux experiments the cells were incubated with ^177Lu-DOTA-labeled peptides for 60 min. Thereafter, radioactive medium was replaced by non-radioactive medium and cell monolayers were incubated for additional 60, 120, and 240 min and afterwards lysed as described earlier. The internalization was assessed after exposure of the cells to ^177Lu-DOTA-labeled peptides for 10, 30, 60, 120, and 240 min at 37° C. Unspecifically bound peptide was removed from the surface by incubation with 1 M glycine-HCl solution (pH 2.2) for 10 min. The monolayer cell was rinsed with PBS and cells were lysed as described before. Radioactivity was determined in a y-counter and calculated as percentage of the applied dose per 1×10^6 cells. Experiments were performed three times, and three repetitions per independent experiment were acquired.

HNO223 cells = test: In vitro binding on HNO223 cells; type: cell-based, human; details: Example 2, 10 min to 480 min (FIG. 16)
Description: For binding studies, 2.5×10^5 to 4×10^5 cells were seeded in 6-well plates and cultivated for 48 hours. Cells were incubated for 60 min with 1 mL serum-free medium containing the ^125I-labeled peptide (see above). For competition experiments, cells were simultaneously exposed to unlabeled (10^-4 M to 10^-10 M) and ^125I-labeled peptides. After three washing steps with PBS (pH 7.4) the cells were lysed with 0.5 mL of 0.3 M NaOH. Experiments concerning the internalization, kinetics and efflux were additionally performed with ^177Lu-DOTA-SFITGv6. […] To continue with the efflux experiment radioactive medium was replaced by non-radioactive medium and cells were incubated again for 60 to 240 min before measuring radioactivity of the cell lysates and the medium. […] Radioactivity was determined in a gamma counter and calculated as percentage of the applied dose per 1×10^6 cells. […]
For the assessment of the peptide binding capacity in vitro, 2.5-4×10^5 cells were seeded into 6-well plates and cultivated for 48 h. ^125I-labeled peptide resuspended in 1 mL serum-free medium was added and incubated for either 10 min or 60 min with or without different concentrations of unlabeled peptide (10^−4-10^−11 M). […] The internalization was assessed after exposure of the cells to ^177Lu-DOTA-labeled peptides for 10, 30, 60, 120, and 240 min at 37° C. […]

[6] = Biodistribution, Capan-2 xenografts; type: in vivo, mice; details: Balb/c nude, mouse, tumor (Capan-2 xenograft), iv, 1 MBq, total radioactivity; after 1 hour (highest)
Description: 6 to 8 week old Balb c/c nude mice (Charles River Lab.) were inoculated with 5*10^6 Capan-2 cells in 100 μl Opti-MEM medium. After 4 to 6 weeks the tumor has grown 10-15 mm in diameter. For small animal PET imaging 25 MBq of the ^68Ga-labeled peptide (2 nmol) was injected into the tail vein.
For biodistribution assays 1 MBq of ^177Lu-labeled peptide was injected into the tail vein of each mouse. After different time points each animal was sacrificed. Peripheral blood, spleen, liver, intestine, kidney, heart, lung, brain, muscle, and tumor were removed and weighted. Radioactivity was measured in a gamma counter and expressed as injected dose per gram (% ID/g).

Row | Structure (SMILES) | IC50 (HNO97 cells [1]) [nM] | IC50 [2] [nM] | proteolytic stability in human serum [3] | histochemical peptide staining result ([4]; breast cancer BM (NCH640k)) | histochemical peptide staining result ([4]; lung BM (NCH2407)) | internalization (HNO97 cells [5]; % of the total bound peptide, Example 2, within 60 min) [%] | maximum binding capacity of ^177Lu-DOTA-labeled peptide (kinetics) (HNO97 cells [5]; Example 2, 10 min to 480 min (FIG. 16)) [%] | total bound ^177Lu-DOTA-labeled peptide (internalization experiment) (HNO97 cells [5]; Example 2, FIG. 17A, B) [%] | maximum binding capacity of ^177Lu-DOTA-labeled peptide (kinetics) (HNO223 cells) [%] | tissue uptake at 1 h [6] [%ID/g]
1 | CSCC[C@@H]1NC(=O)[C@H](CC(C)C)NC(=O)[C@H](CC(=O)O)NC(=O)CNC(=O)[C@H](CCCNC(=N)N)NC(=O)[C@H](Cc2ccccc2)NC(=O)[C@H]([C@@H](C)O)NC(=O)[C@@H](NC(=O)[C@H](CCCNC(=N)N)NC(=O)CN)CSSC[C@@H](C(=O)N[C@@H](Cc2ccc(O)cc2)C(=O)N2CCC[C@H]2C(=O)N[C@@H](CC(=O)O)C(=O)O)NC(=O)[C@H](CC(C)C)NC(=O)[C@H](CCC(N)=O)NC1=O [SFITGv6, NH2-G-R-C1-T-F-R-G-D-L-M-Q-L-C1-Y-P-D-COOH] (H-GRCTFRGDLMQLCYPD-OH; disulfide 3-13) | 16.1 | 14.1 | outstanding stability in human serum over a period of 24 hours | moderate but distinct tumor cell staining | very strong tumor-specific staining pattern |  |  |  |  | 
2 | CC(C)C[C@@H]1NC(=O)[C@H](CC(=O)O)NC(=O)CNC(=O)[C@H](CCCNC(=N)N)NC(=O)CNC(=O)[C@H]([C@@H](C)O)NC(=O)[C@@H](NC(=O)[C@H](CCCNC(=N)N)NC(=O)CNC(=O)CN2CCN(CC(=O)O)CCN(CC(=O)O)CCN(CC(=O)O)CC2)CSSC[C@@H](C(=O)N[C@@H](Cc2ccc(O)cc2)C(=O)N2CCC[C@H]2C(=O)N[C@@H](CC(=O)O)C(N)=O)NC(=O)[C@H](CC(C)C)NC(=O)[C@H](CCCNC(=N)N)NC(=O)CNC1=O [^177Lu-DOTA-SFLAP3, metal not drawn] ({DOTA}-GRCTGRGDLGRLCYPD-NH2; disulfide 3-13; N-terminus and C-terminus assumed) |  |  |  |  |  | 60 | 18.5 | 11.14 | 9.66 | 4
